Data published in ChEMBL document CHEMBL5257035, “Nucleoside Derived Antibiotics to Fight Microbial Drug Resistance: New Utilities for an Established Class of Drugs?” (J Med Chem, 2016).
In brackets after ≈: the same amount, converted by molar mass.

Tests used:
Candida albicans = assay: Inhibition of Candida albicans chitin synthase at 1 uM relative to control
[1] = Toxicity in rat; conditions: in vivo
Bacillus subtilis = assay: Antibacterial activity against Bacillus subtilis ATCC 6633 assessed as bacterial growth inhibition by agar diffusion method; type: functional
[2] = Cytotoxicity against human HepG2 cells assessed as reduction in cell viability incubated for 72 hrs by MTT assay; type: toxicity, cell-based
[3] = target: T1, Phospho-N-acetylmuramoyl-pentapeptide-transferase (Escherichia coli, UniProt E2QF15); assay: Inhibition of MraY in Escherichia coli
T1 sequence (E2QF15 whole entry): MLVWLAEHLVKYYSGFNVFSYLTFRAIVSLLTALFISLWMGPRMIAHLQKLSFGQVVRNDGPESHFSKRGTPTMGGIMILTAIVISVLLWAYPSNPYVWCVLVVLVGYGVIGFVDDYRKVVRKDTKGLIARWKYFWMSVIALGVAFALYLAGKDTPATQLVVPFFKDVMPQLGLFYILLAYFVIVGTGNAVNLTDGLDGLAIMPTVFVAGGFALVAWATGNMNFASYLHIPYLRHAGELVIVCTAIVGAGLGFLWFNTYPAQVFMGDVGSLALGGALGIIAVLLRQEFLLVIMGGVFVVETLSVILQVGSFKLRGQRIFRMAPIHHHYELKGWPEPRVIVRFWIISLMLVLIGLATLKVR

[4] = Inhibition of Bacterial MraY; set-up: species or system Bacteria
[5] = target: T2, Phospho-N-acetylmuramoyl-pentapeptide-transferase (Escherichia coli K-12, UniProt P0A6W3); assay: Inhibition of MraY in Escherichia coli K12
T2 sequence (P0A6W3 whole entry): T1 sequence (E2QF15 whole entry)

O=C(NC[C@H]1O[C@@H](n2ccc(=O)[nH]c2=O)[C@H](O)[C@@H]1O)[C@@H](O)[C@H](O)C(=O)NC[C@H]1O[C@@H](n2ccc(=O)[nH]c2=O)[C@H](O)[C@@H]1O
inhibition (Candida albicans): 35%

CCC(C)CCCCCCCCCC/C=C/C(=O)N[C@H]1[C@H](O[C@@H]2O[C@@H](CO)[C@H](O)[C@H](O)[C@H]2NC(C)=O)O[C@H](C[C@@H](C)[C@H]2O[C@@H](n3ccc(=O)[nH]c3=O)[C@H](O)[C@@H]2O)[C@H](O)[C@@H]1O (stereo partly specified)
LD50 [1]: 0.137 mg/kg
MIC (Bacillus subtilis): 0.1 µg/mL (≈ 0.117 µM)

CCCCOc1ccc(-c2ccc(CC[C@@H](NC(=O)[C@@H](NC(=O)N[C@H](C(=O)O)C(C)C)[C@@H]3CCNC(=N)N3)C(=O)NCCCNC(C(=O)O)[C@H](O[C@@H]3O[C@H](CN)[C@@H](O)[C@H]3O)[C@H]3O[C@@H](n4ccc(=O)[nH]c4=O)[C@H](O)[C@@H]3O)cc2)cc1 (stereo partly specified)
IC50 at 72 h [2]: > 100 µg/mL

NC[C@H]1O[C@@H](O[C@@H](Cn2cc(Cc3ccc(COc4ccc(C(=O)c5ccccc5)cc4)cc3)nn2)[C@H]2O[C@@H](n3ccc(=O)[nH]c3=O)[C@H](O)[C@@H]2O)[C@H](O)[C@@H]1O
IC50 [3]: 8 µM

CC(=O)N[C@H]1[C@H](O[C@@H]2O[C@H](C[C@@H](C)[C@H]3O[C@@H](n4ccc(=O)[nH]c4=O)[C@H](O)[C@@H]3O)[C@H](O)[C@H](O)[C@H]2NC(=O)CCCCCCCCCCCCCCC(C)C)O[C@@H](CO)[C@H](O)[C@@H]1O
LD50 [1]: 0.137 mg/kg
MIC (Bacillus subtilis): 0.1 µg/mL (≈ 0.115 µM)

CC(C)C[C@@H](NC(=O)[C@@H](NC(=O)N[C@H](C(=O)O)C(C)C)[C@@H]1CCNC(=N)N1)C(=O)NCCCNC(C(=O)O)[C@H](O[C@@H]1O[C@H](CN)[C@@H](O)[C@H]1O)[C@H]1O[C@@H](n2ccc(=O)[nH]c2=O)[C@H](O)[C@@H]1O (stereo partly specified)
IC50 at 72 h [2]: > 100 µg/mL

NC[C@H]1O[C@@H](O[C@@H](Cn2cc(CCCCCCCCCCc3ccccc3)nn2)[C@H]2O[C@@H](n3ccc(=O)[nH]c3=O)[C@H](O)[C@@H]2O)[C@H](O)[C@@H]1O
IC50 [3]: 8 µM

CO[C@H]1[C@@H](O)[C@H](n2ccc(=O)[nH]c2=O)O[C@@H]1[C@@H](O[C@@H]1OC(C(=O)N[C@H]2CSC[C@@H](C)NC2=O)=C[C@@H](O)[C@H]1O)C(N)=O
IC50 [3]: 0.058 µM

CO[C@H]1[C@H](O[C@@H](C2C(=O)N(Cc3ccccc3)C(=O)N2CCCNC(=O)[C@@H](NC(=O)[C@@H](NC(=O)N[C@H](C(=O)O)C(C)C)[C@@H]2CCNC(=N)N2)[C@@H](O)C(C)C)[C@H]2O[C@@H](n3ccc(=O)[nH]c3=O)[C@H](O)[C@@H]2O)O[C@H](CN)[C@H]1O (stereo partly specified)
IC50 [4]: 6.25 µM

N=C(N)NC[C@H]1O[C@@H](OC[C@H]2O[C@@H](n3ccc(=O)[nH]c3=O)[C@H](O)[C@@H]2O)[C@H](O)[C@@H]1O
IC50 [3]: 25 µM

CCC(C)CCCCCCCCCCCCC(=O)N[C@H]1[C@H](O[C@@H]2O[C@@H](CO)[C@H](O)[C@H](O)[C@H]2NC(C)=O)O[C@H](C[C@@H](C)[C@H]2O[C@@H](n3ccc(=O)[nH]c3=O)[C@H](O)[C@@H]2O)[C@H](O)[C@@H]1O (stereo partly specified)
LD50 [1]: 0.137 mg/kg
MIC (Bacillus subtilis): 0.1 µg/mL (≈ 0.116 µM)

CC(=O)N[C@H]1[C@H](O[C@@H]2O[C@H](C[C@@H](C)[C@H]3O[C@@H](n4ccc(=O)[nH]c4=O)[C@H](O)[C@@H]3O)[C@H](O)[C@H](O)[C@H]2NC(=O)CCCCCCCCCCCCC(C)C)O[C@@H](CO)[C@H](O)[C@@H]1O
LD50 [1]: 0.137 mg/kg
MIC (Bacillus subtilis): 0.1 µg/mL (≈ 0.118 µM)

CCCCCCCCCCCCN1C(=O)C([C@H](O[C@@H]2O[C@H](CN)[C@@H](O)[C@H]2OC)[C@H]2O[C@@H](n3ccc(=O)[nH]c3=O)[C@H](O)[C@@H]2O)N(CCCNC(=O)[C@@H](NC(=O)[C@@H](NC(=O)N[C@H](C(=O)O)C(C)C)[C@@H]2CCNC(=N)N2)[C@@H](O)C(C)C)C1=O (stereo partly specified)
IC50 [4]: 6.25 µM

CSCC[C@H](NC(=O)N[C@@H](Cc1c[nH]c2ccccc12)C(=O)O)C(=O)N[C@@H](CN(C)C(=O)[C@@H](N)Cc1cccc(O)c1)C(=O)N/C=C1/C[C@@H](O)[C@H](n2ccc(=O)[nH]c2=O)O1
MIC (Bacillus subtilis): 12.5 µg/mL (≈ 14.7 µM)

NC[C@H]1O[C@@H](OC[C@@H]2C[C@@H](O)[C@H](n3ccc(=O)[nH]c3=O)O2)[C@H](O)[C@@H]1O
IC50 [5]: 10 µM

CCCCCCCCCCc1cn(C[C@H](O[C@@H]2O[C@H](CN)[C@@H](O)[C@H]2O)[C@H]2O[C@@H](n3ccc(=O)[nH]c3=O)[C@H](O)[C@@H]2O)nn1
IC50 [3]: 8 µM

N=CNC[C@H]1O[C@@H](OC[C@H]2O[C@@H](n3ccc(=O)[nH]c3=O)[C@H](O)[C@@H]2O)[C@H](O)[C@@H]1O
IC50 [3]: 25 µM

CO[C@H]1[C@@H](OC)[C@H](n2ccc(=O)[nH]c2=O)O[C@@H]1[C@@H](O[C@@H]1OC(C(=O)NCCSSCCNC(C)=O)=C[C@@H](O)[C@H]1O)C(N)=O
IC50 [3]: 0.01 µM

CC(C)[C@H](NC(=O)N[C@H](C(=O)N[C@H](C(=O)NCCCN[C@@H](CC[C@H]1O[C@@H](n2ccc(=O)[nH]c2=O)[C@H](O)[C@@H]1O)C(=O)O)[C@@H](O)C(C)C)[C@@H]1CCNC(=N)N1)C(=O)O
IC50 [4]: 150 µM
IC50 [3]: 1.7 µM

CC(=O)N[C@H]1[C@H](O[C@@H]2O[C@H](C[C@@H](C)[C@H]3O[C@@H](n4ccc(=O)[nH]c4=O)[C@H](O)[C@@H]3O)[C@H](O)[C@H](O)[C@H]2NC(=O)/C=C/CCCCCCCCCCCC(C)C)O[C@@H](CO)[C@H](O)[C@@H]1O
LD50 [1]: 0.137 mg/kg
MIC (Bacillus subtilis): 0.1 µg/mL (≈ 0.117 µM)

CC(=O)N[C@H]1[C@H](O[C@@H]2O[C@H](C[C@@H](C)[C@H]3O[C@@H](n4ccc(=O)[nH]c4=O)[C@H](O)[C@@H]3O)[C@H](O)[C@H](O)[C@H]2NC(=O)/C=C/CCCCCCCCCCC(C)C)O[C@@H](CO)[C@H](O)[C@@H]1O
LD50 [1]: 0.137 mg/kg
MIC (Bacillus subtilis): 0.1 µg/mL (≈ 0.119 µM)

NC[C@H]1O[C@@H](O[C@@H](CO)[C@H]2O[C@@H](n3ccc(=O)[nH]c3=O)[C@H](O)[C@@H]2O)[C@H](O)[C@@H]1O
IC50 [4]: 5 µM

CC(=O)N[C@H]1[C@H](O[C@@H]2O[C@H](C[C@@H](C)[C@H]3O[C@@H](n4ccc(=O)[nH]c4=O)[C@H](O)[C@@H]3O)[C@H](O)[C@H](O)[C@H]2NC(=O)/C=C/CCCCCCCCCCCCC(C)C)O[C@@H](CO)[C@H](O)[C@@H]1O
LD50 [1]: 0.137 mg/kg
MIC (Bacillus subtilis): 0.1 µg/mL (≈ 0.115 µM)

O=C(NCCCNC(=O)[C@@H](O)[C@H](O)C(=O)NC[C@H]1O[C@@H](n2ccc(=O)[nH]c2=O)[C@H](O)[C@@H]1O)[C@@H](O)[C@H](O)C(=O)NC[C@H]1O[C@@H](n2ccc(=O)[nH]c2=O)[C@H](O)[C@@H]1O
inhibition (Candida albicans): 10%

NC[C@H]1O[C@@H](O[C@@H](Cc2cn(CCCCCCCCCCOc3ccc(C(=O)c4ccccc4)cc3)nn2)[C@H]2O[C@@H](n3ccc(=O)[nH]c3=O)[C@H](O)[C@@H]2O)[C@H](O)[C@@H]1O
IC50 [3]: 8 µM

CNC[C@H]1O[C@@H](OC[C@H]2O[C@@H](n3ccc(=O)[nH]c3=O)[C@H](O)[C@@H]2O)[C@H](O)[C@@H]1O
IC50 [3]: 25 µM

NC[C@H]1O[C@@H](OC[C@H]2O[C@@H](n3ccc(=O)[nH]c3=O)[C@H](O)[C@@H]2O)[C@H](O)[C@@H]1O
IC50 [4]: 50 µM
IC50 [5]: 10 µM
IC50 [3]: 25 µM

CCC(C)CCCCCCCCCCCCCCC(=O)N[C@H]1[C@H](O[C@@H]2O[C@@H](CO)[C@H](O)[C@H](O)[C@H]2NC(C)=O)O[C@H](C[C@@H](C)[C@H]2O[C@@H](n3ccc(=O)[nH]c3=O)[C@H](O)[C@@H]2O)[C@H](O)[C@@H]1O (stereo partly specified)
LD50 [1]: 0.137 mg/kg
MIC (Bacillus subtilis): 0.1 µg/mL (≈ 0.113 µM)

NC(=O)[C@@H](O)[C@H](O)C(=O)NC[C@H]1O[C@@H](n2ccc(=O)[nH]c2=O)[C@H](O)[C@@H]1O
inhibition (Candida albicans): 20%

O=C(NCCNC(=O)[C@@H](O)[C@H](O)C(=O)NC[C@H]1O[C@@H](n2ccc(=O)[nH]c2=O)[C@H](O)[C@@H]1O)[C@@H](O)[C@H](O)C(=O)NC[C@H]1O[C@@H](n2ccc(=O)[nH]c2=O)[C@H](O)[C@@H]1O
inhibition (Candida albicans): 5%

CCC(C)CCCCCCCCCCCC/C=C/C(=O)N[C@H]1[C@H](O[C@@H]2O[C@@H](CO)[C@H](O)[C@H](O)[C@H]2NC(C)=O)O[C@H](C[C@@H](C)[C@H]2O[C@@H](n3ccc(=O)[nH]c3=O)[C@H](O)[C@@H]2O)[C@H](O)[C@@H]1O (stereo partly specified)
LD50 [1]: 0.137 mg/kg
MIC (Bacillus subtilis): 0.1 µg/mL (≈ 0.113 µM)

CC(=O)N[C@H]1[C@H](O[C@@H]2O[C@H](C[C@@H](C)[C@H]3O[C@@H](n4ccc(=O)[nH]c4=O)[C@H](O)[C@@H]3O)[C@H](O)[C@H](O)[C@H]2NC(=O)CC(O)CCCCCCCCCCCCC(C)C)O[C@@H](CO)[C@H](O)[C@@H]1O (stereo partly specified)
LD50 [1]: 0.137 mg/kg
MIC (Bacillus subtilis): 0.1 µg/mL (≈ 0.112 µM)

NC(=O)[C@H](O)[C@@H](O)C(=O)NC[C@H]1O[C@@H](n2ccc(=O)[nH]c2=O)[C@H](O)[C@@H]1O
inhibition (Candida albicans): 12%

NC[C@H]1O[C@@H](OC[C@H]2O[C@@H](n3ccc(=O)[nH]c3=O)C[C@@H]2O)[C@H](O)[C@@H]1O
IC50 [5]: 10 µM

CC(=O)N[C@H]1[C@H](O[C@@H]2O[C@H](C[C@@H](C)[C@H]3O[C@@H](n4ccc(=O)[nH]c4=O)[C@H](O)[C@@H]3O)[C@H](O)[C@H](O)[C@H]2NC(=O)CC(O)CCCCCCCCCCC(C)C)O[C@@H](CO)[C@H](O)[C@@H]1O (stereo partly specified)
LD50 [1]: 0.137 mg/kg
MIC (Bacillus subtilis): 0.1 µg/mL (≈ 0.116 µM)

CO[C@H]1[C@@H](O)[C@H](n2ccc(=O)[nH]c2=O)O[C@@H]1C(OC1OC(C(=O)Nc2ccc(C(O)C(O)C(=O)N/C=C/C(=O)NCC(=O)O)cc2)=CC(O)C1O)C(N)=O (stereo partly specified)
IC50 [4]: 0.011 µM

NC[C@H]1O[C@@H](O[C@@H](Cc2cn(Cc3ccc(COc4ccc(C(=O)c5ccccc5)cc4)cc3)nn2)[C@H]2O[C@@H](n3ccc(=O)[nH]c3=O)[C@H](O)[C@@H]2O)[C@H](O)[C@@H]1O
IC50 [3]: 8 µM
